From ChEMBL document CHEMBL4622885, “Rational design, synthesis and biological evaluation of novel multitargeting anti-AD iron chelators with potent MAO-B inhibitory and antioxidant activity” (Bioorg Med Chem, 2020) come the findings set out here.

Series [1] is described as follows: Metal chelating activity assessed as Fe3+ complex formation by measuring stability constant for Fe(I)3 in using pre Fe+3 complexed compound (FeCl3) in 0.1 M KCl :DMSO solution UV-pH titration based spectrophotometric analysis.
Series [2] can be described thus: Metal chelating activity assessed as iron chelation.
Series [3] in a line: Dissociation constant, pKa1 of compound for protonation of the 4-oxo group in 0.1 M KCl incubated for 1 min by UV-pH titration based spectrophotometric analysis. In kind it is physicochemical.
Series [4] can be described thus: Metal chelating activity assessed as Fe3+ complex formation by measuring stability constant for FeI in using pre Fe+3 complexed compound (FeCl3) in 0.1 M KCl :DMSO solution UV-pH titration based spectrophotometric analysis.
Series [5] has as its target T1, Amine oxidase [flavin-containing] B (Homo sapiens, UniProt P27338).
T1 sequence (P27338 whole entry): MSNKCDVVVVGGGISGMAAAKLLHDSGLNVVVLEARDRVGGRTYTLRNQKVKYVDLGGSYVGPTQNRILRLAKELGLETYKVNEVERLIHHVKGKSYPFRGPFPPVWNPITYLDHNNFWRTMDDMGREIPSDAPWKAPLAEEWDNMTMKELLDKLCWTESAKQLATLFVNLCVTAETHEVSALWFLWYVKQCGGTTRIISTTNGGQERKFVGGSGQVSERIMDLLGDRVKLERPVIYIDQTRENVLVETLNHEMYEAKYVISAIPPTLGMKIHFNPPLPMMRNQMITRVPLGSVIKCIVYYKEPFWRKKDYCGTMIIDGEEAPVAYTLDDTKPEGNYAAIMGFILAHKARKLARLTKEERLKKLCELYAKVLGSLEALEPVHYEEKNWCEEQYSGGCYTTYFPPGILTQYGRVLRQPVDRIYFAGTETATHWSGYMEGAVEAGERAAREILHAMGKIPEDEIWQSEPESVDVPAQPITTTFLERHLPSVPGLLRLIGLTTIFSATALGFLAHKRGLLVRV
Nature of the series: Inhibition of human recombinant MAO-B expressed in baculovirus infected BTI insect cells using kynuramine as substrate incubated for 10 mins followed by substrate addition by fluorimetric analysis.

Series [6] in a line: Dissociation constant, pKa2 of compound for dissociation of the 3-hydroxyl group in 0.1 M KCl incubated for 1 min by UV-pH titration based spectrophotometric analysis. In kind it is physicochemical.
Series [7] deals with T1, Amine oxidase [flavin-containing] B. Nature of the series: Inhibition of human recombinant MAO-B expressed in baculovirus infected BTI insect cells using kynuramine as substrate at 100 nM incubated for 10 mins followed by substrate addition by fluorimetric analysis relative to control.
Series [8] is described as follows: Metal chelating activity assessed as Fe3+ complex formation by measuring stability constant for Fe(I)2 in using pre Fe+3 complexed compound (FeCl3) in 0.1 M KCl :DMSO solution UV-pH titration based spectrophotometric analysis.

In the case of `Cc1c(O)c(=O)ccn1CCNC(=O)c1cc2ccc(OCc3ccc(F)cc3)cc2oc1=O`, the log(activity) in series [1] was found to be 33.5; in series [4], 14.2; in series [8] it was 25.1. Also, in series [2], the pFe3+ stood at 17. Also, the pKa at 1 min in series [3] came out at 3.27; in series [6] it was 9.76. In addition, in series [5], the 50% inhibitory concentration (IC50) was determined as 0.128 µM. In addition, in series [7], the inhibition at 0.1 µM was 48.1%.

With `Cc1c(O)c(=O)ccn1CCNC(=O)c1cc2cccc(OCc3ccccc3)c2oc1=O`, the results for the log(activity) in series [1], in series [4] and in series [8] were 32.9, 14 and 25.4, respectively. The pFe3+ in series [2] came to 17.2. For the same compound, the pKa at 1 min came out at 3.28 in series [3] and 9.58 in series [6]. Further, the IC50 in series [5] is 0.131 µM. For the same compound, in series [7], the inhibition at 0.1 µM worked out at 46.5%.

In the case of `Cc1c(O)c(=O)ccn1CCNC(=O)c1cc2cc(OCc3ccccc3)ccc2oc1=O`, the log(activity) in series [1] was 32; in series [4] it was 13.7; in series [8], 24.3. Moreover, the pFe3+ in series [2] was 16.9. The figures for the pKa at 1 min in series [3] and in series [6] were 3.25 and 9.32, respectively. In addition, the half-inhibitory concentration (IC50) in series [5] is 0.1 µM. In series [7], the inhibition at 0.1 µM was 47.7%.

`CCOc1ccc2cc(C(=O)NCCn3ccc(=O)c(O)c3C)c(=O)oc2c1`: the values for the log(activity) in series [1], in series [4] and in series [8] were 34.7, 14.2 and 25.6, respectively. Besides, the pFe3+ in series [2] stood at 18.2. Moreover, the pKa at 1 min is 3.3 in series [3] and 9.75 in series [6]. Also, the 50% inhibitory concentration (IC50) in series [5] came out at 0.108 µM. Besides, the inhibition at 0.1 µM in series [7] was 46.2%.

On to `Cc1c(O)c(=O)ccn1CCNC(=O)c1cc2ccc(O)cc2oc1=O`, for which the log(activity) in series [1] stood at 34.2; in series [4] it was 13.8; in series [8], 25.2. Further, in series [2], the pFe3+ is 17.2. For the same compound, the results for the pKa at 1 min in series [3] and in series [6] were 2.75 and 9.92, respectively. The inhibition at 0.1 µM in series [7] amounted to 29.5%.

On to `CCCOc1ccc2cc(C(=O)NCCn3ccc(=O)c(O)c3C)c(=O)oc2c1`, for which the log(activity) was found to be 34.6 in series [1], 14.6 in series [4] and 26 in series [8]. The pFe3+ in series [2] is 18.1. Also, the pKa at 1 min in series [3] was 3.31; in series [6], 9.75. Further, the half-inhibitory concentration (IC50) in series [5] stood at 0.135 µM. In addition, the inhibition at 0.1 µM in series [7] came out at 45.9%.

As to `Cc1cc(=O)c(O)cn1CCNC(=O)c1cc2ccccc2oc1=O`, the log(activity) in series [1] amounted to 31.8; in series [4], 12.9; in series [8], 23.3. Also, in series [2], the pFe3+ turned out to be 17.3. For the same compound, the results for the pKa at 1 min in series [3] and in series [6] were 3.3 and 9.05, respectively. In addition, the IC50 in series [5] worked out at 0.129 µM. Besides, the inhibition at 0.1 µM in series [7] is 44.8%.

As for `Cc1c(O)c(=O)ccn1CCNC(=O)c1cc2cccc(O)c2oc1=O`, the log(activity) in series [1] came out at 34.8; in series [4], 14.4; in series [8], 26. Moreover, the pFe3+ in series [2] stood at 17.6. Moreover, the pKa at 1 min in series [3] worked out at 3.35; in series [6] it was 9.98. The concentration for half-maximal inhibition (IC50) in series [5] came to 0.158 µM. For the same compound, the inhibition at 0.1 µM in series [7] is 46.2%.

Take `Cc1c(O)c(=O)ccn1CCNC(=O)c1cc2ccc(OCc3ccc(C(C)C)cc3)cc2oc1=O`: the log(activity) was 35.6 in series [1], 14.6 in series [4] and 25.6 in series [8]. Also, the pFe3+ in series [2] was found to be 19. Further, the pKa at 1 min is 3.18 in series [3] and 9.79 in series [6]. The IC50 in series [5] amounted to 0.117 µM. Moreover, in series [7], the inhibition at 0.1 µM is 45.7%.

For the compound `Cc1cccc(COc2ccc3cc(C(=O)NCCn4ccc(=O)c(O)c4C)c(=O)oc3c2)c1`, the log(activity) in series [1] came out at 35.2; in series [4], 14.2; in series [8], 24.4. For the same compound, the pFe3+ in series [2] is 18.8. The pKa at 1 min worked out at 3.27 in series [3] and 9.72 in series [6]. For the same compound, the concentration for half-maximal inhibition (IC50) in series [5] is 0.144 µM. Moreover, the inhibition at 0.1 µM in series [7] is 44.6%.

Take `Cc1c(O)c(=O)ccn1CCNC(=O)c1cc2cc(O)ccc2oc1=O`: the log(activity) was found to be 34.1 in series [1], 15.1 in series [4] and 26.5 in series [8]. In series [2], the pFe3+ was 17.2. Besides, the pKa at 1 min in series [3] stood at 3.33; in series [6] it was 10.1. Moreover, the IC50 in series [5] stood at 0.188 µM. Moreover, the inhibition at 0.1 µM in series [7] came out at 46.4%.

Regarding `Cc1c(O)c(=O)ccn1C` [DEFERIPRONE], the log(activity) in series [1] fell in the range of 34.2 to 37.4; in series [4], 14.4 to 15.1; in series [8], 25.7 to 27.4. The pFe3+ in series [2] was determined as 20.7. Also, the pKa at 1 min in series [3] fell in the range of 3.61 to 3.67; in series [6], 9.78 to 9.84.

On to `Cc1ccc2cc(C(=O)NCCn3ccc(=O)c(O)c3C)c(=O)oc2c1`, for which the log(activity) in series [1] is 34.3; in series [4], 14.2; in series [8], 25.4. Also, the pFe3+ in series [2] stood at 17.8. The pKa at 1 min was determined as 3.32 in series [3] and 9.75 in series [6]. In addition, the IC50 in series [5] is 0.163 µM. The inhibition at 0.1 µM in series [7] stood at 44.3%.

For `Cc1c(O)c(=O)ccn1CCNC(=O)c1cc2ccccc2oc1=O`, the log(activity) amounted to 33.9 in series [1], 14 in series [4] and 25 in series [8]. In addition, the pFe3+ in series [2] came out at 17.9. The pKa at 1 min in series [3] is 3.22; in series [6], 9.59. For the same compound, in series [5], the IC50 was 0.173 µM. In series [7], the inhibition at 0.1 µM was 46.9%.

Take `Cc1c(O)c(=O)ccn1CCNC(=O)c1cc2ccc(OCc3cc(F)cc(F)c3)cc2oc1=O`: the log(activity) amounted to 33.5 in series [1], 14.3 in series [4] and 25 in series [8]. The pFe3+ in series [2] was found to be 16.9. The figures for the pKa at 1 min in series [3] and in series [6] were 3.25 and 9.78, respectively. In addition, the IC50 in series [5] came to 0.125 µM. Also, the inhibition at 0.1 µM in series [7] stood at 47.4%.

As for `Cc1c(O)c(=O)ccn1CCNC(=O)c1cc2ccc(OCc3ccc(C(C)(C)C)cc3)cc2oc1=O`, the log(activity) was 36.6 in series [1], 14.8 in series [4] and 26.1 in series [8]. For the same compound, the pFe3+ in series [2] was 20.2. For the same compound, the pKa at 1 min came to 3.17 in series [3] and 9.73 in series [6]. Further, the 50% inhibitory concentration (IC50) in series [5] turned out to be 0.122 µM. Further, the inhibition at 0.1 µM in series [7] was 45.3%.

Consider `Cc1c(O)c(=O)ccn1CCNC(=O)c1cc2ccc(OCC3CCCCC3)cc2oc1=O`, for which the log(activity) in series [1] was found to be 34.7; in series [4] it was 14.3; in series [8], 25.1. For the same compound, the pFe3+ in series [2] came to 18.1. Besides, the pKa at 1 min in series [3] was found to be 3.29; in series [6] it was 9.76. Moreover, the inhibition at 0.1 µM in series [7] was 44.6%.

As for `COc1ccc2cc(C(=O)NCCn3ccc(=O)c(O)c3)c(=O)oc2c1`, the log(activity) in series [1] was determined as 31.9; in series [4], 12.9; in series [8], 23.4. Also, the pFe3+ in series [2] came to 18.3. In addition, the values for the pKa at 1 min in series [3] and in series [6] were 3.07 and 8.74, respectively. Moreover, the inhibition at 0.1 µM in series [7] amounted to 31.3%.

As to `COc1ccc2oc(=O)c(C(=O)NCCn3ccc(=O)c(O)c3C)cc2c1`, the log(activity) in series [1] is 32.8; in series [4], 14.2; in series [8] it was 25.3. Further, the pFe3+ in series [2] stood at 17.1. Moreover, the pKa at 1 min in series [3] amounted to 3.27; in series [6] it was 9.58. For the same compound, the inhibition at 0.1 µM in series [7] was determined as 38.5%.

For `Cc1ccc2oc(=O)c(C(=O)NCCn3ccc(=O)c(O)c3C)cc2c1`, the figures for the log(activity) in series [1], in series [4] and in series [8] were 34.1, 14.1 and 25.4, respectively. Further, the pFe3+ in series [2] is 17.9. Moreover, the values for the pKa at 1 min in series [3] and in series [6] were 3.33 and 9.67, respectively. Besides, in series [7], the inhibition at 0.1 µM is 34.8%.

`COc1ccc2cc(C(=O)NCCn3cc(O)c(=O)cc3C)c(=O)oc2c1`: the log(activity) in series [1] turned out to be 33; in series [4], 13.9; in series [8], 24.5. In series [2], the pFe3+ turned out to be 18.5. The pKa at 1 min in series [3] came out at 3.34; in series [6] it was 9.07. Further, the inhibition at 0.1 µM in series [7] was found to be 35.5%.

On to `Cc1c(O)c(=O)ccn1CCNC(=O)c1cc2ccc(OCc3ccccc3)cc2oc1=O`, for which the log(activity) in series [1] amounted to 33.2; in series [4], 14.1; in series [8] it was 24.9. Further, the pFe3+ in series [2] amounted to 16.9. Further, the results for the pKa at 1 min in series [3] and in series [6] were 3.25 and 9.7, respectively. Also, in series [7], the inhibition at 0.1 µM stood at 30.1%.
